Source: patent publication US20230271954A1 (Gossamer Bio Services, Inc., priority 2020, published 2023)

Key:
DGKα = DGKα (Homo sapiens, UniProt P23743); assay: DGKα biochemical assay (ADP-Glo); conditions: read-out: DGK α IC50
In short: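 ADP-Glo kinase assay using OAG/PS (1:2) lipid substrate, sonicated, in HEPES pH 7.0 buffer with MgCl2, CaCl2, DTT, BSA, Triton X-100. Enzyme preincubated with compound 30 min at RT; substrate with ATP (DGKα: 400 μM) added, 45 min RT. Luminescence read; % inhibition vs DMSO and no-enzyme controls.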

DGKζ = target: T1, DGKζ (Homo sapiens, UniProt Q13574); assay: DGKζ biochemical assay (ADP-Glo); conditions: read-out: DGK ζ IC50
T1 construct: purchased Carna 12-110
T1 sequence (Q13574 1-929 isoform Q13574-4): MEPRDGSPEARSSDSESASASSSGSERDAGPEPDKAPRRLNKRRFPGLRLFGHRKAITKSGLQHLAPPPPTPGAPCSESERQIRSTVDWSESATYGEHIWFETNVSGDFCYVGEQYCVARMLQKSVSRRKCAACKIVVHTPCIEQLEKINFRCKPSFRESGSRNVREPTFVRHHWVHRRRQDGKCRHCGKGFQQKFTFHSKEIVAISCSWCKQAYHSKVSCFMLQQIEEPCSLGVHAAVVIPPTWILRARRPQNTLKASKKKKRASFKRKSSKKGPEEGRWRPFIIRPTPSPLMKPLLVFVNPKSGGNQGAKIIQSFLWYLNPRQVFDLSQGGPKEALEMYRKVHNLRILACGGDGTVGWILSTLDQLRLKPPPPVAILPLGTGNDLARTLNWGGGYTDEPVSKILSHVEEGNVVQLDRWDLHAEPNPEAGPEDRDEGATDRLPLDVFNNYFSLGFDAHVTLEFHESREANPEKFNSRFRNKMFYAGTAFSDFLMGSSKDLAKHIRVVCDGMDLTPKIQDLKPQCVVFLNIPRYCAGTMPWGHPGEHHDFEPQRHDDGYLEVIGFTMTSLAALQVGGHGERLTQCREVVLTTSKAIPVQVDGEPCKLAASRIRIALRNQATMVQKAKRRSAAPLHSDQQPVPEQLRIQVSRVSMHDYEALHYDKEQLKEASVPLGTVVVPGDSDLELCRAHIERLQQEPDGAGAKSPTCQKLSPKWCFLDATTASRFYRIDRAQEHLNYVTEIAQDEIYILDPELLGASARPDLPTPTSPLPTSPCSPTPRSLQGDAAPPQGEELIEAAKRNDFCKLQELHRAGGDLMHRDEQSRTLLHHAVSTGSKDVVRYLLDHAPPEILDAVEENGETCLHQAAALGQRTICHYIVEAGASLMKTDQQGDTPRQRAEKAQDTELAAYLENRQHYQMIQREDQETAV

DGKα, sequence (P23743 whole entry): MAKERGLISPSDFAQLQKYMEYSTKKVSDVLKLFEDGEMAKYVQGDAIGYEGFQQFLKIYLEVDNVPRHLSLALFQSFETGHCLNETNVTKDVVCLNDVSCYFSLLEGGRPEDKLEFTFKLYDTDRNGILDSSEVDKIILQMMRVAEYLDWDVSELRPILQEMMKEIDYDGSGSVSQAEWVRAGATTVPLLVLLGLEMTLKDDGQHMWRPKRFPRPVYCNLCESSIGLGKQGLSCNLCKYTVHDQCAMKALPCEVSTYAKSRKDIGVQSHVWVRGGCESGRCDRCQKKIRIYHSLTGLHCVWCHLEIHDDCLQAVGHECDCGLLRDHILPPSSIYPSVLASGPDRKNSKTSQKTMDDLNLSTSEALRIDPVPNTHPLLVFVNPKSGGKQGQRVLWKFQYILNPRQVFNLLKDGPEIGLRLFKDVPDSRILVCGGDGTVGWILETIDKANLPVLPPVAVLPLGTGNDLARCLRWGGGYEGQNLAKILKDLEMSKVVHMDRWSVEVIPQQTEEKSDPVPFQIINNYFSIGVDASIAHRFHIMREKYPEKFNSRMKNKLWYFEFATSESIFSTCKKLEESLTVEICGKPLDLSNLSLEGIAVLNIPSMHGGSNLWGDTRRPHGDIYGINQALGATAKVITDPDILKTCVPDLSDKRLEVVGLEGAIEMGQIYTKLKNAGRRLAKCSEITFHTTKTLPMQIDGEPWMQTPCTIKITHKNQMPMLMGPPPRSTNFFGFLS

SMILES: Cn1c(=O)cc(N[C@H]2CC[C@@H](N(CC3COC3)c3ccccc3)CC2)c2nc(C#N)ccc21 [Example 3Q, cis-5-Methyl-8-((4-((oxetan-3-ylmethyl)(phenyl)amino)cyclohexyl)amino)-6-oxo-5,6-dihydro-1,5-naphthyridine-2-carbonitrile]
- IC50 (DGKα): 100 to 1000 nM
- IC50 (DGKζ): ≥ 1000 nM

SMILES: Cn1c(=O)cc(N(C)[C@H]2CC[C@@H](N(CC3COCCO3)c3cccc4c3OCO4)CC2)c2nc(C#N)ccc21 (single isomer, unassigned) [Example 196, cis-8-((-4-((((R or S)-1,4-dioxan-2-yl)methyl) (benzo[d][1,3]dioxol-4-yl)amino)cyclohexyl)(methyl)amino)-5-methyl-6-oxo-5,6-dihydro-1,5-naphthyridine-2-carbonitrile]
- IC50 (DGKα): ≥ 1000 nM
- IC50 (DGKζ): 100 to 1000 nM

SMILES: CC(C)CN(c1ccnn1C)[C@H]1CC[C@H](N(C)c2c(C#N)c(=O)n(C)c3ccc(C#N)nc23)CC1 [Example 176, trans-8-((-4-(isobutyl(1-methyl-1H-pyrazol-5-yl)amino)cyclohexyl)(methyl)amino)-5-methyl-6-oxo-5,6-dihydro-1,5-naphthyridine-2,7-dicarbonitrile]
- IC50 (DGKα): ≥ 1000 nM
- IC50 (DGKζ): ≥ 1000 nM

SMILES: Cn1c(=O)c(C#N)c(N[C@H]2CC[C@H](N(c3ccccc3)C3CC3)CC2)c2nc(Cl)ccc21 [Example 3A, trans-6-Chloro-4-((4-(cyclopropyl(phenyl)amino)cyclohexyl)amino)-1-methyl-2-oxo-1,2-dihydro-1,5-naphthyridine-3-carbonitrile]
- IC50 (DGKα): < 10 nM
- IC50 (DGKζ): ≥ 1000 nM

SMILES: Cn1c(=O)oc2ccc(N(CC3CC3)[C@H]3CC[C@@H](N(C)c4c(C#N)c(=O)n(C)c5ccc(C#N)nc45)CC3)cc21 [Example 207, cis-8-((-4-((cyclopropylmethyl)(3-methyl-2-oxo-2,3-dihydrobenzo[d]oxazol-5-yl)amino)cyclohexyl) (methyl)amino)-5-methyl-6-oxo-5,6-dihydro-1,5-naphthyridine-2,7-dicarbonitrile]
- IC50 (DGKα): ≥ 1000 nM
- IC50 (DGKζ): ≥ 1000 nM

SMILES: COc1cc(N(CC2CC2)[C@H]2CC[C@@H](N(C)c3c(C#N)c(=O)n(C)c4ccc(Cl)nc34)CC2)ccc1F [Example 32, cis-6-chloro-4-((4-((cyclopropylmethyl)(4-fluoro-3-methoxyphenyl)amino)cyclohexyl)(methyl)amino)-1-methyl-2-oxo-1,2-dihydro-1,5-naphthyridine-3-carbonitrile]
- IC50 (DGKα): 10 to 100 nM
- IC50 (DGKζ): ≥ 1000 nM

SMILES: Cn1c(=O)c(C#N)c(N(C)[C@H]2CC[C@H](N(CC3CCOCC3)c3ccc(F)cc3)CC2)c2nc(C#N)ccc21 [Example 59, trans-8-((-4-((4-fluorophenyl)((tetrahydro-2H-pyran-4-yl)methyl)amino)cyclohexyl)(methyl)amino)-5-methyl-6-oxo-5,6-dihydro-1,5-naphthyridine-2,7-dicarbonitrile]
- IC50 (DGKα): 100 to 1000 nM
- IC50 (DGKζ): 100 to 1000 nM

SMILES: Cn1c(=O)c(C#N)c(N(C)[C@H]2CC[C@@H](N(C[C@H]3CCCOC3)c3ccc(F)cc3)CC2)c2nc(C#N)ccc21 [Example 68]
- IC50 (DGKα): < 10 nM
- IC50 (DGKζ): 10 to 100 nM

SMILES: Cn1c(=O)c(C#N)c(N(C)[C@H]2CC[C@@H](N(C[C@@H]3CCCOC3)c3ccc4c(c3)OCO4)CC2)c2nc(C#N)ccc21 [Example 142, cis-8-((-4-(benzo[d][1,3]dioxol-5-yl(((S)-tetrahydro-2H-pyran-3-yl)methyl)amino)cyclohexyl)(methyl)amino)-5-methyl-6-oxo-5,6-dihydro-1,5-naphthyridine-2,7-dicarbonitrile]
- IC50 (DGKα): 10 to 100 nM
- IC50 (DGKζ): 10 to 100 nM

SMILES: Cn1c(=O)cc(N(C)[C@H]2CC[C@@H](N(CC3COCCO3)c3cccc4c3OCO4)CC2)c2nc(C#N)ccc21 (single isomer, unassigned) [Example 195, cis-8-((-4-((((S or R)-1,4-dioxan-2-yl)methyl) (benzo[d][1,3]dioxol-4-yl)amino)cyclohexyl)(methyl)amino)-5-methyl-6-oxo-5,6-dihydro-1,5-naphthyridine-2-carbonitrile]
- IC50 (DGKα): 100 to 1000 nM
- IC50 (DGKζ): 100 to 1000 nM
